Source: ChEMBL document CHEMBL1201862, “PubChem BioAssay data set” (2004)
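A five-concentration, 48-hour dose response in 96-well plates underlies each endpoint, interpolated linearly between surrounding concentrations. GI50: concentration for 50% inhibition of growth.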 The source made the active and inactive calls. Cut-off read from the data, not from the text of the source: active = GI50 up to about 1.1 µM and inactive = higher.

Experiments:
Experiment in all cases: NCI anticancer screen, dose series, 48 h
HCT-116 = tested on: HCT-116
Malme-3M = tested on: Malme-3M
A549 = tested on: A549
HCC 2998 = tested on: HCC 2998
NCI-H23 = tested on: NCI-H23
MDA-MB-231 = tested on: MDA-MB-231
786-0 = tested on: 786-0
UO-31 = tested on: UO-31
RPMI-8226 = tested on: RPMI-8226
SR = tested on: SR
HL-60 = tested on: HL-60
NCI/ADR-RES = tested on: NCI/ADR-RES
DU-145 = tested on: DU-145
SNB-75 = tested on: SNB-75
UACC-257 = tested on: UACC-257
ACHN = tested on: ACHN
IGROV-1 = tested on: IGROV-1
KM12 = tested on: KM12
SF-268 = tested on: SF-268
TK-10 = tested on: TK-10

| Compound | GI50 (HCT-116) | GI50 (Malme-3M) | GI50 (A549) | GI50 (HCC 2998) | GI50 (NCI-H23) | GI50 (MDA-MB-231) | GI50 (786-0) | GI50 (UO-31) | GI50 (RPMI-8226) | GI50 (SR) | GI50 (HL-60) | GI50 (NCI/ADR-RES) | GI50 (DU-145) | GI50 (SNB-75) | GI50 (UACC-257) | GI50 (ACHN) | GI50 (IGROV-1) | GI50 (KM12) | GI50 (SF-268) | GI50 (TK-10) |
| --- | --- | --- | --- | --- | --- | --- | --- | --- | --- | --- | --- | --- | --- | --- | --- | --- | --- | --- | --- | --- |
| CSc1nc2c(c(=O)[nH]1)N=C(c1ccc(Cl)cc1)CC(c1ccccc1)N2 (stereo not given) | 21.3 µM (inactive) | 19.5 µM (inactive) | 13.6 µM (inactive) | 15.5 µM (inactive) | 14.7 µM (inactive) | 16.6 µM (inactive) | 15.7 µM (inactive) | 13.9 µM (inactive) | 17.4 µM (inactive) | 37.8 µM (inactive) | 16.7 µM (inactive) | 14.5 µM (inactive) | 20.7 µM (inactive) | 12.1 µM (inactive) | 16.2 µM (inactive) | 15.6 µM (inactive) | 15.5 µM (inactive) | 16.4 µM (inactive) | – | – |
| O=C(/C=C/c1ccccc1)CCN1CCCCC1 | 17.4 µM (inactive) | > 100 µM (inactive) | 54.1 µM (inactive) | > 100 µM (inactive) | 24.8 µM (inactive) | 26 µM (inactive) | 20.5 µM (inactive) | 34.9 µM (inactive) | 14.7 µM (inactive) | 25.9 µM (inactive) | 29.4 µM (inactive) | 38.8 µM (inactive) | > 100 µM (inactive) | 36.8 µM (inactive) | 37.4 µM (inactive) | 84.7 µM (inactive) | 43.1 µM (inactive) | 28.5 µM (inactive) | 42.5 µM (inactive) | 51.3 µM (inactive) |
| COC/C=C\[C@]1(O)CCCC[C@@H]1CC(OC)OC | – | > 100 µM (inactive) | > 100 µM (inactive) | > 100 µM (inactive) | > 100 µM (inactive) | > 100 µM (inactive) | > 100 µM (inactive) | > 100 µM (inactive) | 97.7 µM (inactive) | 81.1 µM (inactive) | 20.4 µM (inactive) | > 100 µM (inactive) | > 100 µM (inactive) | > 100 µM (inactive) | > 100 µM (inactive) | > 100 µM (inactive) | > 100 µM (inactive) | > 100 µM (inactive) | > 100 µM (inactive) | > 100 µM (inactive) |
| COc1c(-c2ccc(F)cc2)oc2cc(O)cc(O)c2c1=O | 30.5 µM (inactive) | 26.6 µM (inactive) | 31 µM (inactive) | 14.5 µM (inactive) | 29.6 µM (inactive) | 20 µM (inactive) | 32.8 µM (inactive) | 16.6 µM (inactive) | 30.4 µM (inactive) | 28.2 µM (inactive) | 30.9 µM (inactive) | 25.9 µM (inactive) | 29 µM (inactive) | 19.2 µM (inactive) | – | 30.7 µM (inactive) | 21.4 µM (inactive) | 30.5 µM (inactive) | 40 µM (inactive) | – |
| O=S(=O)(c1ccc(Br)cc1)N1CCN(S(=O)(=O)c2ccc(Br)cc2)CC1 | > 100 µM (inactive) | > 100 µM (inactive) | > 100 µM (inactive) | – | > 100 µM (inactive) | > 100 µM (inactive) | > 100 µM (inactive) | > 100 µM (inactive) | > 100 µM (inactive) | 0.0703 µM (active) | > 100 µM (inactive) | > 100 µM (inactive) | > 100 µM (inactive) | > 100 µM (inactive) | > 100 µM (inactive) | > 100 µM (inactive) | > 100 µM (inactive) | > 100 µM (inactive) | > 100 µM (inactive) | > 100 µM (inactive) |
| c1ccc(COC[C@H]2C3OCC([C@H](OCc4ccccc4)[C@H]3OCc3ccccc3)N2Cc2ccccc2)cc1 (stereo not given in full) | 23.5 µM (inactive) | 27.9 µM (inactive) | > 54.2 µM (inactive) | > 53 µM (inactive) | 40.3 µM (inactive) | > 49.2 µM (inactive) | > 50.1 µM (inactive) | > 46.1 µM (inactive) | 15.8 µM (inactive) | 26.8 µM (inactive) | 8.41 µM (inactive) | > 47.8 µM (inactive) | > 48.2 µM (inactive) | 21.1 µM (inactive) | 49 µM (inactive) | > 56.2 µM (inactive) | 43 µM (inactive) | 25.3 µM (inactive) | > 54.3 µM (inactive) | > 52.6 µM (inactive) |
| N#CC(CCN1CCC(Nc2ccccc2)(c2nnnn2C2CCCCC2)CC1)(c1ccccc1)c1ccccc1 | > 100 µM (inactive) | > 100 µM (inactive) | > 100 µM (inactive) | > 100 µM (inactive) | > 100 µM (inactive) | > 100 µM (inactive) | > 100 µM (inactive) | > 100 µM (inactive) | > 100 µM (inactive) | > 100 µM (inactive) | > 100 µM (inactive) | > 100 µM (inactive) | 81.3 µM (inactive) | > 100 µM (inactive) | > 100 µM (inactive) | > 100 µM (inactive) | > 100 µM (inactive) | > 100 µM (inactive) | > 100 µM (inactive) | > 100 µM (inactive) |
| COc1cc(/C=C2/CCCc3ccccc3C2=O)cc(OC)c1OC | 6.65 µM (inactive) | 12.7 µM (inactive) | 27 µM (inactive) | 22.5 µM (inactive) | 18.4 µM (inactive) | 15.6 µM (inactive) | 18.3 µM (inactive) | 14.6 µM (inactive) | 2.63 µM (inactive) | 2.74 µM (inactive) | 2.72 µM (inactive) | 9.2 µM (inactive) | 11.9 µM (inactive) | 12.4 µM (inactive) | 12.9 µM (inactive) | 15.8 µM (inactive) | 28.9 µM (inactive) | 11.7 µM (inactive) | 14.7 µM (inactive) | 22.5 µM (inactive) |
| CC12CCC3[C@@H](CC3(C)C)C(O)(CCC1=O)C2 (stereo not given in full) | > 100 µM (inactive) | > 100 µM (inactive) | > 100 µM (inactive) | > 100 µM (inactive) | > 100 µM (inactive) | > 100 µM (inactive) | > 100 µM (inactive) | > 100 µM (inactive) | > 100 µM (inactive) | > 100 µM (inactive) | > 100 µM (inactive) | > 100 µM (inactive) | > 100 µM (inactive) | > 100 µM (inactive) | > 100 µM (inactive) | > 100 µM (inactive) | > 100 µM (inactive) | > 100 µM (inactive) | > 100 µM (inactive) | > 100 µM (inactive) |
| C/C(Nc1ccc(F)cc1)=C1/CCOC1=O | > 100 µM (inactive) | > 100 µM (inactive) | 90.4 µM (inactive) | 25.6 µM (inactive) | > 100 µM (inactive) | > 100 µM (inactive) | > 100 µM (inactive) | 92.3 µM (inactive) | > 100 µM (inactive) | > 100 µM (inactive) | 12.4 µM (inactive) | > 100 µM (inactive) | > 100 µM (inactive) | > 100 µM (inactive) | > 100 µM (inactive) | 1.8 µM (inactive) | > 100 µM (inactive) | 1.38 µM (inactive) | > 100 µM (inactive) | > 100 µM (inactive) |
| COc1cc2cc(C(=O)N3C[C@H](CCl)c4c3cc(N)c3ccccc43)[nH]c2c(OC)c1OC | 0.00695 µM (active) | 0.005 µM (active) | 1.3 µM (inactive) | 1.93 µM (inactive) | 0.005 µM (active) | 3.36 µM (inactive) | 5.11 µM (inactive) | 0.005 µM (active) | 0.0275 µM (active) | 8.28 µM (inactive) | 0.0586 µM (active) | 0.00791 µM (active) | 0.409 µM (active) | 2.19 µM (inactive) | 1.6 µM (inactive) | < 0.005 µM (active) | 0.218 µM (active) | 0.00187 µM (active) | 0.593 µM (active) | 0.005 µM (active) |
| Cn1cccc1-c1ccc(-c2ccc(CO)[se]2)[se]1 | 6.34 µM (inactive) | 66.1 µM (inactive) | 15.2 µM (inactive) | 2.02 µM (inactive) | 25.9 µM (inactive) | 29.8 µM (inactive) | 14.2 µM (inactive) | 35.7 µM (inactive) | 7.98 µM (inactive) | 17.1 µM (inactive) | 7.35 µM (inactive) | 22.8 µM (inactive) | 17.5 µM (inactive) | 6.08 µM (inactive) | – | 38.9 µM (inactive) | 0.582 µM (active) | 8.99 µM (inactive) | 44.7 µM (inactive) | 28.1 µM (inactive) |
| Cc1ccc2[nH]c3c(c2c1)CCC/C3=N/N=C(N)N | 2.79 µM (inactive) | 2.11 µM (inactive) | 1.89 µM (inactive) | 1.7 µM (inactive) | 3.06 µM (inactive) | 1.39 µM (inactive) | 2.07 µM (inactive) | 1.95 µM (inactive) | 2.5 µM (inactive) | 2.22 µM (inactive) | 9.4 µM (inactive) | 1.66 µM (inactive) | 1.71 µM (inactive) | 1.34 µM (inactive) | 2.51 µM (inactive) | 1.89 µM (inactive) | 1.62 µM (inactive) | 1.63 µM (inactive) | – | – |
| Nc1nc(N)c2cc(Sc3cccc(C(F)(F)F)c3)ccc2n1 [WR-159412] | 0.237 µM (active) | 1.02 µM (active) | 0.367 µM (active) | 1.39 µM (inactive) | 2.99 µM (inactive) | 0.364 µM (active) | 0.624 µM (active) | 1.2 µM (inactive) | 1.93 µM (inactive) | 0.843 µM (active) | 1.62 µM (inactive) | 0.955 µM (active) | 0.982 µM (active) | 3.17 µM (inactive) | – | 0.885 µM (active) | 0.708 µM (active) | 2.59 µM (inactive) | 2.22 µM (inactive) | 10.1 µM (inactive) |
